From patent publication US20150011466A1, “APJ Receptor Compounds” (priority 2012, published 2015)
Read-outs that look alike come from different tables or passages of the source. Where a SMILES comes first, the peptide text is derived from it. Where no end group is shown, it is not given here. [ ]: non-standard residue; d: D form. The star is where a group is joined. Palmitoyl = CCCCCCCCCCCCCCCC(=O)*; Aib = CC(C)(N)C(=O)O

What was measured:
[1] = target: T1, APJ receptor (Homo sapiens, UniProt P35414); assay: HTRF cAMP assay, inhibition of NKH477 stimulated cAMP in Human TRex cells expressing APJ upon doxycycline induction (APJ-hTREX); format: cell-based; settings: for Ranking: class combining EC50 and % histamine; for percent intrinsic activity at 0.3 µM: read-out: % IA (@ 300 nM)
T1 construct: expressed in transfected cells; host or cells: Human TRex cells (doxycycline-inducible)
T1 sequence (P35414 1-380): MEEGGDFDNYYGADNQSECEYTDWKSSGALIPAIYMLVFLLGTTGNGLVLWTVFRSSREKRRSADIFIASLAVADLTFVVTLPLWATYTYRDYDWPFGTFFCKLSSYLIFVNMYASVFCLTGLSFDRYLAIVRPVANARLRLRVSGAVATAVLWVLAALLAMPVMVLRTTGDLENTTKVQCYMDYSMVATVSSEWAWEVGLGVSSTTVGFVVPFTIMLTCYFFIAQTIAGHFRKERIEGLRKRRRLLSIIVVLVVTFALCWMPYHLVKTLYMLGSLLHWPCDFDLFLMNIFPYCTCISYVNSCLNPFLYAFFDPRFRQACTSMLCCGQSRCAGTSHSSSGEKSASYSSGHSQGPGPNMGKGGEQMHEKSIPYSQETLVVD
Description: HTRF (homogeneous time resolved fluorescence) is a technology developed by Cisbio Bioassays based on TR-FRET (time-resolved fluorescence resonance energy transfer). Cisbio Bioassays has developed a wide selection of HTRF-based assays compatible with whole cells, thereby enabling functional assays to run under more physiological conditions. The IP-One assays are competitive immunoassays using cryptate-labeled anti-IP1 monoclonal antibody and d2-labeled IP1. IP1 is a relatively stable downstream metabolite of IP3, and accumulates in cells following Gq receptor activation.
cAMP kits based on a competitive immunoassay using cryptate-labeled anti-cAMP antibody and d2-labeled cAMP were used to assay the effects of APJ compounds of the present invention. […] Cells are treated with […] doxycycline and seeded in all white 96 well plates @ 40 k/well overnight.

[2] = Histimine (% vs. 48/40)
[3] = inhibition of NKH477 stimulated cAMP, APJ-hTREX cells, read-out: APJ-hTREX EC50

| percent intrinsic activity at 0.3 µM [1] [%] | Histimine (% vs. 48/40) [2] [%] | Molecule | further results |
| --- | --- | --- | --- |
| 65 | 118 | CCCCCCCCCCCCCCCC(=O)N[C@H](C(=O)N[C@H](C(=O)N[C@@H](Cc1ccccc1)C(=O)N[C@@H](CCCNC(=N)N)C(=O)N[C@@H](CO)C(=O)N[C@@H](CO)C(=O)N[C@@H](CCC(=O)O)C(=O)N[C@H](CCCCN)C(=O)N[C@@H](CCCNC(=N)N)C(=O)N[C@@H](CCCNC(=N)N)C(=O)N[C@@H](CO)C(=O)N[C@@H](C)C(=O)N[C@@H](Cc1ccccc1)C(=O)N[C@H](C(=O)N[C@@H](Cc1ccccc1)C(=O)N[C@H](C(N)=O)[C@@H](C)CC)[C@@H](C)CC)C(C)C)[C@@H](C)O [Compound 4] (Palmitoyl-TVFRSSE[dK]RRSAFIFI-NH2) |  |
| 76 | 70 | CCCCCCCCCCCCCCCC(=O)N[C@H](C(=O)N[C@H](C(=O)N[C@@H](Cc1ccccc1)C(=O)N[C@@H](CCCNC(=N)N)C(=O)N[C@@H](CO)C(=O)N[C@@H](CO)C(=O)N[C@@H](CCC(=O)O)C(=O)N[C@H](CCCCN)C(=O)N[C@@H](CCCNC(=N)N)C(=O)N[C@@H](CCCNC(=N)N)C(=O)N[C@@H](CO)C(=O)N[C@@H](C)C(=O)N[C@@H](CC(=O)O)C(=O)N[C@H](C(=O)N[C@@H](Cc1ccccc1)C(=O)N[C@@H](Cc1ccccc1)C(N)=O)[C@@H](C)CC)C(C)C)[C@@H](C)O [Compound 6] (Palmitoyl-TVFRSSE[dK]RRSADIFF-NH2; C-terminus assumed) | Ranking [1]: *** (EC50<100 nM and % histamine>35%); EC50 [1, 3]: 49.2 nM |
| 74 | 20 | CCCCCCCCCCCCCCCC(=O)N[C@H](C(=O)N[C@H](C(=O)N[C@@H](Cc1ccccc1)C(=O)N[C@@H](CCCNC(=N)N)C(=O)N[C@@H](CO)C(=O)N[C@@H](CO)C(=O)N[C@@H](CCC(=O)O)C(=O)N[C@H](CCCCN)C(=O)N[C@@H](CCCNC(=N)N)C(=O)N[C@@H](Cc1c[nH]cn1)C(=O)N[C@@H](CO)C(=O)N[C@@H](C)C(=O)N[C@@H](CC(=O)O)C(=O)N[C@H](C(=O)N[C@@H](Cc1ccccc1)C(=O)N[C@H](C(N)=O)[C@@H](C)CC)[C@@H](C)CC)C(C)C)[C@@H](C)O [Compound 14] (Palmitoyl-TVFRSSE[dK]RHSADIFI-NH2; C-terminus assumed) | Ranking [1]: **** (EC50 101-500 nM and % histamine<35%); EC50 [1, 3]: 253 nM |
| 77 | 103 | CCCCCCCCCCCCCCCC(=O)N[C@H](C(=O)N[C@H](C(=O)N[C@@H](Cc1ccccc1)C(=O)N[C@@H](CCCNC(=N)N)C(=O)N[C@@H](CO)C(=O)N[C@@H](CO)C(=O)N[C@@H](CCC(=O)O)C(=O)N[C@H](CCCCN)C(=O)N[C@@H](CCCNC(=N)N)C(=O)N[C@@H](CCCNC(=N)N)C(=O)N[C@@H](CO)C(=O)N[C@@H](Cc1c[nH]cn1)C(=O)N[C@@H](CC(=O)O)C(=O)N[C@H](C(=O)N[C@@H](Cc1ccccc1)C(=O)N[C@H](C(N)=O)[C@@H](C)CC)[C@@H](C)CC)C(C)C)[C@@H](C)O [Compound 15] (Palmitoyl-TVFRSSE[dK]RRSHDIFI-NH2) |  |
| 70 |  | CCCCCCCCCCCCCCCC(=O)N[C@H](C(=O)N[C@H](C(=O)N[C@@H](Cc1ccccc1)C(=O)N[C@@H](CCCNC(=N)N)C(=O)N1CCC[C@H]1C(=O)N[C@@H](CO)C(=O)N[C@@H](CCC(=O)O)C(=O)N[C@H](CCCCN)C(=O)N[C@@H](CCCNC(=N)N)C(=O)N[C@@H](CCCNC(=N)N)C(=O)N[C@@H](CO)C(=O)N[C@@H](C)C(=O)N[C@@H](CC(=O)O)C(=O)N[C@H](C(=O)N[C@@H](Cc1ccccc1)C(=O)N[C@H](C(N)=O)[C@@H](C)CC)[C@@H](C)CC)C(C)C)[C@@H](C)O [Compound 45] (Palmitoyl-TVFRPSE[dK]RRSADIFI-NH2) |  |
| 77 |  | CCCCCCCCCCCCCCCC(=O)N[C@H](C(=O)N[C@H](C(=O)N[C@@H](Cc1ccccc1)C(=O)N[C@@H](CCCNC(=N)N)C(=O)N[C@@H](CO)C(=O)N1CCC[C@H]1C(=O)N[C@@H](CCC(=O)O)C(=O)N[C@H](CCCCN)C(=O)N[C@@H](CCCNC(=N)N)C(=O)N[C@@H](CCCNC(=N)N)C(=O)N[C@@H](CO)C(=O)N[C@@H](C)C(=O)N[C@@H](CC(=O)O)C(=O)N[C@H](C(=O)N[C@@H](Cc1ccccc1)C(=O)N[C@H](C(N)=O)[C@@H](C)CC)[C@@H](C)CC)C(C)C)[C@@H](C)O [Compound 46] (Palmitoyl-TVFRSPE[dK]RRSADIFI-NH2) |  |
| 66 |  | CCCCCCCCCCCCCCCC(=O)N[C@H](C(=O)N[C@H](C(=O)N[C@@H](Cc1ccccc1)C(=O)N[C@@H](CCCNC(=N)N)C(=O)N[C@@H](CO)C(=O)NC(C)(C)C(=O)N[C@@H](CCC(=O)O)C(=O)N[C@H](CCCCN)C(=O)N[C@@H](CCCNC(=N)N)C(=O)N[C@@H](CCCNC(=N)N)C(=O)N[C@@H](CO)C(=O)N[C@@H](C)C(=O)N[C@@H](CC(=O)O)C(=O)N[C@H](C(=O)N[C@@H](Cc1ccccc1)C(=O)N[C@H](C(N)=O)[C@@H](C)CC)[C@@H](C)CC)C(C)C)[C@@H](C)O [Compound 59] (Palmitoyl-TVFRS[Aib]E[dK]RRSADIFI-NH2) |  |
| 67 |  | CCCCCCCCCCCCCCCC(=O)N[C@H](C(=O)N[C@H](C(=O)N[C@@H](Cc1ccccc1)C(=O)N[C@@H](CCCNC(=N)N)C(=O)N[C@@H](CO)C(=O)NCC(=O)N[C@@H](CCC(=O)O)C(=O)N[C@H](CCCCN)C(=O)N[C@@H](CCCNC(=N)N)C(=O)N[C@@H](CCCNC(=N)N)C(=O)N[C@@H](CO)C(=O)N[C@@H](C)C(=O)N[C@@H](CC(=O)O)C(=O)N[C@H](C(=O)N[C@@H](Cc1ccccc1)C(=O)N[C@H](C(N)=O)[C@@H](C)CC)[C@@H](C)CC)C(C)C)[C@@H](C)O [Compound 73] (Palmitoyl-TVFRSGE[dK]RRSADIFI-NH2) |  |
| 61 |  | CCCCCCCCCCCCCCCC(=O)N[C@H](C(=O)N[C@H](C(=O)N[C@@H](Cc1ccccc1)C(=O)N[C@@H](CCCNC(=N)N)C(=O)N[C@@H](CO)C(=O)N[C@@H](CO)C(=O)NCC(=O)N[C@H](CCCCN)C(=O)N[C@@H](CCCNC(=N)N)C(=O)N[C@@H](CCCNC(=N)N)C(=O)N[C@@H](CO)C(=O)N[C@@H](C)C(=O)N[C@@H](CC(=O)O)C(=O)N[C@H](C(=O)N[C@@H](Cc1ccccc1)C(=O)N[C@H](C(N)=O)[C@@H](C)CC)[C@@H](C)CC)C(C)C)[C@@H](C)O [Compound 74] (Palmitoyl-TVFRSSG[dK]RRSADIFI-NH2) |  |
| 57 |  | CCCCCCCCCCCCCCCC(=O)N[C@H](C(=O)N[C@H](C(=O)N[C@@H](Cc1ccccc1)C(=O)N[C@@H](CCCNC(=N)N)C(=O)N[C@@H](CO)C(=O)N[C@@H](CO)C(=O)N[C@@H](CCC(=O)O)C(=O)N[C@H](CCCCN)C(=O)NCC(=O)N[C@@H](CCCNC(=N)N)C(=O)N[C@@H](CO)C(=O)N[C@@H](C)C(=O)N[C@@H](CC(=O)O)C(=O)N[C@H](C(=O)N[C@@H](Cc1ccccc1)C(=O)N[C@H](C(N)=O)[C@@H](C)CC)[C@@H](C)CC)C(C)C)[C@@H](C)O [Compound 75] (Palmitoyl-TVFRSSE[dK]GRSADIFI-NH2) |  |
|  |  | TVFRSSEkPRSADIFI (TVFRSSE[dK]PRSADIFI; also: Pal-C(O)- tether, place not given here) [Compound 49] | % IA (@ 300 nM) [1]: 49% |
|  |  | TVFRSSEkRRSADFFI (TVFRSSE[dK]RRSADFFI; also: Pal-C(O)- tether, place not given here) [Compound 5] | % IA (@ 300 nM) [1]: 81% |

| Molecule | percent intrinsic activity at 0.3 µM [1] [%] | Histimine (% vs. 48/40) [2] [%] | further results |
| --- | --- | --- | --- |
| CCCCCCCCCCCCCCCC(=O)N[C@H](C(=O)N[C@H](C(=O)N[C@@H](Cc1ccccc1)C(=O)N[C@@H](CCCNC(=N)N)C(=O)N[C@@H](CO)C(=O)N[C@@H](CO)C(=O)N[C@@H](CCC(=O)O)C(=O)N[C@H](CCCCN)C(=O)N[C@@H](Cc1ccccc1)C(=O)N[C@@H](CCCNC(=N)N)C(=O)N[C@@H](CO)C(=O)N[C@@H](C)C(=O)N[C@@H](CC(=O)O)C(=O)N[C@H](C(=O)N[C@@H](Cc1ccccc1)C(=O)N[C@H](C(N)=O)[C@@H](C)CC)[C@@H](C)CC)C(C)C)[C@@H](C)O [Compound 3] (Palmitoyl-TVFRSSE[dK]FRSADIFI-NH2; C-terminus assumed) | 71 | 29 | EC50 [1]: 243 nM; Ranking [1]: **** (EC50 101-500 nM and % histamine<35%) |
| CCCCCCCCCCCCCCCC(=O)N[C@H](C(=O)N[C@H](C(=O)N[C@@H](Cc1ccccc1)C(=O)N[C@@H](CCCNC(=N)N)C(=O)N[C@@H](CO)C(=O)N[C@@H](Cc1c[nH]cn1)C(=O)N[C@@H](CCC(=O)O)C(=O)N[C@H](CCCCN)C(=O)N[C@@H](CCCNC(=N)N)C(=O)N[C@@H](CCCNC(=N)N)C(=O)N[C@@H](CO)C(=O)N[C@@H](C)C(=O)N[C@@H](CC(=O)O)C(=O)N[C@H](C(=O)N[C@@H](Cc1ccccc1)C(=O)N[C@H](C(N)=O)[C@@H](C)CC)[C@@H](C)CC)C(C)C)[C@@H](C)O [Compound 11] (Palmitoyl-TVFRSHE[dK]RRSADIFI-NH2; C-terminus assumed) | 68 | 38 | EC50 [1]: 65.1 nM; Ranking [1]: *** (EC50<100 nM and % histamine>35%) |
